Reference: patent US10000473B2, “Indazole derivatives useful as glucagon receptor antagonists” (Janssen Pharmaceutica NV, priority 2016, dated 2018)

Biological target: T1, human GCGR (Homo sapiens, UniProt P47871)
T1 construct: expressed in transfected cells; host or cells: HEK293 (hGluc-1HEK), pcDNA3.1, G418 selection
Assay: Cellular functional assay, cAMP readout (glucagon-stimulated cAMP, LANCE TR-FRET)
Format: cell-based
Conditions: HEK293 cells stably expressing full-length human GCGR; glucagon 100 pM; IC50 converted to Ki; read-out: Inhibition of cAMP Ki

T1 sequence (P47871 26-477): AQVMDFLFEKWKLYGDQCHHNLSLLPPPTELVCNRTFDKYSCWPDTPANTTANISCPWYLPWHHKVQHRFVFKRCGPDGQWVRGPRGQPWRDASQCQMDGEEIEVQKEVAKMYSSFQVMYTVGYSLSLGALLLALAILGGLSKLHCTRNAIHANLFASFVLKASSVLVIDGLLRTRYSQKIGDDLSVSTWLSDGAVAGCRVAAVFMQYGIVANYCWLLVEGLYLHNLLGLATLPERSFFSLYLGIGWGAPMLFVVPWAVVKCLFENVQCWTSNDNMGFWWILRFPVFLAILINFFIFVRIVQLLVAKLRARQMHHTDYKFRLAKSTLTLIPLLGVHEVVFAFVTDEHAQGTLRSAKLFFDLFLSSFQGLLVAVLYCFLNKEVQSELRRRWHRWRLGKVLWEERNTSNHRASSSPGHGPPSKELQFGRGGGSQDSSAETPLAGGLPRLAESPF

Compound	Ki
CC(C)CCC(c1ccc(C(=O)NCCC(=O)O)cc1)n1cc2cc(-c3ccc(C(C)(C)C)cc3)ccc2n1 (stereo not drawn) [Compound #227, 3-(4-(1-(5-(4-(tert-Butyl)phenyl)-2H-indazol-2-yl)-4-methylpentyl)benzamido)propanoic acid]	330 nM
Cc1cc(C(F)(F)F)ccc1-c1cc2cnn(C(CC(C)C)c3ccc(C(=O)NCCC(=O)O)nc3)c2cc1C (stereo not drawn) [Compound #214, 3-[[5-[3-Methyl-1-[6-methyl-5-[2-methyl-4-(trifluoromethyl)phenyl]indazol-1-yl]butyl]pyridine-2-carbonyl]amino]propanoic acid]	32 nM
Cc1ccc(-c2ccc3c(cnn3C(CC(C)C)c3ccc(C(=O)NCCC(=O)O)cc3)c2C)c(Cl)c1 (stereo not drawn) [Compound #105, 3-(4-(1-(5-(2-Chloro-4-methylphenyl)-4-methyl-1H-indazol-1-yl)-3-methylbutyl)benzamido)propanoic acid]	800 nM
CC(C)CC(c1ccc(C(=O)NCCC(=O)O)cc1)n1ncc2c(Cl)c(-c3ccc(C(F)(F)F)cc3)ccc21 (stereo not drawn) [Compound #67, 3-(4-(1-(4-Chloro-5-(4-(trifluoromethyl)phenyl)-1H-indazol-1-yl)-3-methylbutyl)benzamido)propanoic acid]	245 nM
CC(C)CC(c1ccc(C(=O)NCCC(=O)O)nc1)n1ncc2cc(-c3ccc(C(C)(C)C)cc3)ccc21 (stereo not drawn) [Compound #36, 3-(5-(1-(5-(4-(tert-Butyl)phenyl)-1H-indazol-1-yl)-3-methylbutyl)picolinamido)propanoic acid]	430 nM
COc1ccc2cc(-c3ccc4nn(C(CC(C)C)c5ccc(C(=O)NCCC(=O)O)cc5)cc4c3)ccc2c1 (stereo not drawn) [compound 82]	> 1300 nM
O=C(O)CCNC(=O)c1ccc(C(CC2CCCC2)n2ncc3cc(-c4ccc(C(F)(F)F)cc4)ccc32)cn1 (stereo not drawn) [compound 199]	310 nM
Cc1c(-c2ccc(C(F)(F)F)cc2Cl)ccc2nn(C(CC(C)C)c3ccc(C(=O)NCCC(=O)O)nc3)cc12 (stereo not drawn) [Compound #154, 3-(5-(1-(5-(2-Chloro-4-(trifluoromethyl)phenyl)-4-methyl-2H-indazol-2-yl)-3-methylbutyl)picolinamido)propanoic acid]	13 nM
Cc1cc(Cl)ccc1-c1ccc2nn(C(CC3CCCCC3)c3ccc(C(=O)NCCC(=O)O)cc3)cc2c1 (stereo not drawn) [compound 153]	42 nM
O=C(O)CCNC(=O)c1ccc(C(c2ccc(C(F)(F)F)cc2)n2cc3cc(-c4ccc(C(F)(F)F)cc4)ccc3n2)cc1 (stereo not drawn) [Compound #66, 3-(4-((4-(Trifluoromethyl)phenyl)(5-(4-(trifluoromethyl)phenyl)-2H-indazol-2-yl)methyl)benzamido)propanoic acid]	600 nM
O=C(O)CCNC(=O)c1ccc(C(CC2CCC2)n2ncc3cc(-c4ccc(C(F)(F)F)cc4)ccc32)cn1 (stereo not drawn) [compound 251]	650 nM
Cc1cc2c(cnn2C(CC(C)C)c2ccc(C(=O)NCCC(=O)O)cc2)cc1-c1cc2cc(F)ccc2s1 (stereo not drawn) [Compound #158, 3-[[4-[1-[5-(5-Fluorobenzothiophen-2-yl)-6-methyl-indazol-1-yl]-3-methyl-butyl]benzoyl]amino]propanoic acid]	190 nM
COc1c(-c2ccc(C(F)(F)F)cc2Cl)ccc2nn([C@H](CC(C)C)c3ccc(C(=O)NCCC(=O)O)cc3)cc12 [Compound #191, 3-[[4-[(1R)-1-[5-[2-Chloro-4-(trifluoromethyl)phenyl]-4-methoxy-indazol-2-yl]-3-methyl-butyl]benzoyl]amino]propanoic acid]	35 nM
CC(C)CC(c1ccc(C(=O)NCCC(=O)O)cc1)n1ncc2cc(-c3cccnc3)ccc21 (stereo not drawn) [compound 219]	> 5200 nM
CC(C)CCC(c1ccc(C(=O)NCCC(=O)O)cc1)n1ncc2cc(-c3ccc(C(F)(F)F)cc3)ccc21 (stereo not drawn) [compound 59]	155 nM
CCCC(c1ccc(C(=O)NCCC(=O)O)cc1)n1cc2cc(-c3ccc(C(F)(F)F)cc3)ccc2n1 (stereo not drawn) [compound 91]	125 nM
O=C(O)CCNC(=O)c1ccc(C(CC2CCCCC2)n2cc3cc(-c4ccc(C(F)(F)F)cc4)ccc3n2)cn1 (stereo not drawn) [compound 240]	200 nM
Cc1cc(C(F)(F)F)ccc1-c1ccc2nn(C(CCC(F)(F)F)c3ccc(C(=O)NCCC(=O)O)cc3)cc2c1 (stereo not drawn) [Compound #50, 3-[[4-[4,4,4-Trifluoro-1-[5-[2-methyl-4-(trifluoromethyl)phenyl]indazol-2-yl]butyl]benzoyl]amino]propanoic acid]	47 nM
CCOc1c(-c2ccc(C)cc2C)ccc2nn(C(CC(C)C)c3ccc(C(=O)NCCC(=O)O)nc3)cc12 (stereo not drawn) [compound 182]	70 nM
Cc1cc(-c2ccc(C(C)(C)C)cc2)cc2cn(C(CC(C)C)c3ccc(C(=O)NCCC(=O)O)nc3)nc12 (stereo not drawn) [compound 108]	1340 nM
CC(C)CC(c1ccc(C(=O)NCCC(=O)O)cc1)n1ncc2cc(-c3cc4ccc(F)cc4s3)ccc21 (stereo not drawn) [compound 126]	280 nM
COc1c(-c2ccc(C(F)(F)F)cc2Cl)ccc2c1cnn2C(CC(C)C)c1ccc(C(=O)NCCC(=O)O)cc1 (stereo not drawn) [Compound #103, 3-(4-(1-(5-(2-Chloro-4-(trifluoromethyl)phenyl)-4-methoxy-1H-indazol-1-yl)-3-methylbutyl)benzamido)propanoic acid]	100 nM
O=C(O)CCNC(=O)c1ccc(C(CCC(F)(F)F)n2ncc3cc(-c4cc(Cl)cc(Cl)c4)ccc32)cc1 (stereo not drawn) [Compound #45, 3-[[4-[1-[5-(3,5-Dichlorophenyl)indazol-1-yl]-4,4,4-trifluorobutyl]benzoyl]amino]propanoic acid]	1650 nM
CCCCCCC(c1ccc(C(=O)NCCC(=O)O)cc1)n1ncc2cc(-c3ccc(C(F)(F)F)cc3)ccc21 (stereo not drawn) [compound 159]	155 nM
Cc1cc(Cl)ccc1-c1cc2cn(C(CC(C)C)c3ccc(C(=O)NCCC(=O)O)nc3)nc2cc1Cl (stereo not drawn) [Compound #140, 3-[[5-[1-[6-Chloro-5-(4-chloro-2-methyl-phenyl)indazol-2-yl]-3-methyl-butyl]pyridine-2-carbonyl]amino]propanoic acid]	125 nM
Cc1cc2c(cnn2C(CC(C)C)c2ccc(C(=O)NCCC(=O)O)nc2)cc1-c1ccc(C(F)(F)F)cc1Cl (stereo not drawn) [Compound #259, 3-[[5-[1-[5-[2-Chloro-4-(trifluoromethyl)phenyl]-6-methyl-indazol-1-yl]-3-methyl-butyl]pridine-2-carbonyl]amino]propanoic acid]	37 nM
CC(C)CCC(c1ccc(C(=O)NCCC(=O)O)cc1)n1ncc2cc(-c3ccc(C(C)(C)C)cc3)ccc21 (stereo not drawn) [Compound #23, 3-(4-(1-(5-(4-(tert-Butyl)phenyl)-1H-indazol-1-yl)-4-methylpentyl)benzamido)propanoic acid]	144 nM
O=C(O)CCNC(=O)c1ccc(C(CCC2CCCCC2)n2cc3cc(-c4ccc(C(F)(F)F)cc4)ccc3n2)cc1 (stereo not drawn) [compound 133]	92 nM
COc1c(-c2ccc(C(F)(F)F)cc2C)ccc2nn(C(CC(C)C)c3ccc(C(=O)NCCC(=O)O)nc3)cc12 (stereo not drawn) [Compound #236, 3-(5-(1-(4-Methoxy-5-(2-methyl-4-(trifluoromethyl)phenyl)-2H-indazol-2-yl)-3-methylbutyl)picolinamido)propanoic acid]	12 nM
CCCCCCC(c1ccc(C(=O)NCCC(=O)O)nc1)n1cc2cc(-c3ccc(Cl)cc3C)ccc2n1 (stereo not drawn) [compound 203]	75 nM
